Test results as given in patent publication US7205300B2, “Aryl fused azapolycyclic compounds” (Pfizer Inc, priority 1997, dated 2007).

SMILES | melting point
Cl.O=C(Nc1cc2c(cc1O)C1CNCC2C1)c1ccccc1F (stereo not shown) | 125 to 130 °C
Cl.Fc1cc2c(cc1F)C1CNCC2C1 | 301 to 303 °C
Cl.Fc1ccc2c(c1)C1CNCC2C1 (stereo not shown) | 260 to 262 °C
Cl.c1nc2cc3c(cc2[nH]1)C1CNCC3C1 (stereo not shown) | > 250 °C
Cc1nc2cc3c(cc2n1CC(C)C)C1CNCC3C1.Cl (stereo not shown) | 129 to 130 °C
Cl.c1cnc2cc3c(cc2c1)C1CNCC3C1 (stereo not shown) | 260 °C (dec.)
CC(C)c1nc2cc3c(cc2o1)C1CNCC3C1.Cl (stereo not shown) | 249 to 251 °C
Cc1nc2cc3c(cc2o1)C1CNCC3C1.Cl (stereo not shown) | > 250 °C
CCc1cnc2cc3c(cc2c1)C1CNCC3C1.Cl (stereo not shown) | 288 to 291 °C (dec.)
Cc1nc2cc3c(cc2n1C)C1CNCC3C1.Cl (stereo not shown) | 225 to 230 °C
Cl.Nc1ccc2c(c1)C1CNCC2C1 (stereo not shown) | 189 to 192 °C
CC(=O)Nc1ccc2c(c1)C1CNCC2C1.Cl (stereo not shown) | 225 to 230 °C
Cc1ccc2c(c1)C1CNCC2C1.Cl (stereo not shown) | 254 to 255 °C
Cl.Oc1cccc2c1C1CNCC2C1 (stereo not shown) | 253 to 255 °C
Cl.Fc1cccc2c1C1CNCC2C1 (stereo not shown) | 269 to 271 °C
CC(C)Cn1cnc2cc3c(cc21)C1CNCC3C1.Cl (stereo not shown) | 147 to 150 °C
Cl.N#Cc1ccc2c(c1)C1CNCC2C1 (stereo not shown) | 268 to 273 °C
Cc1ccc2cc3c(cc2n1)C1CNCC3C1.Cl (stereo not shown) | > 300 °C (dec.)
CN1CC2CC(C1)c1cc3nccnc3cc12.Cl | > 250 °C
Cl.O=[N+]([O-])c1ccc2c(c1)C1CNCC2C1 (stereo not shown) | 265 to 270 °C
Cc1nc2cc3c(cc2n1-c1ccccc1)C1CNCC3C1.Cl (stereo not shown) | > 250 °C
Cl.c1ccc(-n2cnc3cc4c(cc32)C2CNCC4C2)cc1 (stereo not shown) | 210 to 213 °C
Cl.Clc1cc2c(cc1Cl)C1CNCC2C1 | 283 to 291 °C
CC(=O)c1ccc2c(c1)C1CNCC2C1.Cl (stereo not shown) | 198 to 202 °C
Cl.c1ccc(-c2cccc3c2C2CNCC3C2)cc1 (stereo not shown) | 262 to 265 °C
Cc1nc2cc3c(cc2s1)C1CNCC3C1.Cl (stereo not shown) | 183 to 184 °C
Cl.O=c1ccc2cc3c(cc2[nH]1)C1CNCC3C1 (stereo not shown) | 300 °C (dec.)
Cl.FC(F)(F)c1cccc2c1C1CNCC2C1 (stereo not shown) | 275 to 277 °C
